We go through seven compounds from ChEMBL document CHEMBL1201862, “PubChem BioAssay data set” (2004).

One test addresses T1, Coagulation factor XII (Homo sapiens, UniProt P00748).
T1 sequence (P00748 whole entry): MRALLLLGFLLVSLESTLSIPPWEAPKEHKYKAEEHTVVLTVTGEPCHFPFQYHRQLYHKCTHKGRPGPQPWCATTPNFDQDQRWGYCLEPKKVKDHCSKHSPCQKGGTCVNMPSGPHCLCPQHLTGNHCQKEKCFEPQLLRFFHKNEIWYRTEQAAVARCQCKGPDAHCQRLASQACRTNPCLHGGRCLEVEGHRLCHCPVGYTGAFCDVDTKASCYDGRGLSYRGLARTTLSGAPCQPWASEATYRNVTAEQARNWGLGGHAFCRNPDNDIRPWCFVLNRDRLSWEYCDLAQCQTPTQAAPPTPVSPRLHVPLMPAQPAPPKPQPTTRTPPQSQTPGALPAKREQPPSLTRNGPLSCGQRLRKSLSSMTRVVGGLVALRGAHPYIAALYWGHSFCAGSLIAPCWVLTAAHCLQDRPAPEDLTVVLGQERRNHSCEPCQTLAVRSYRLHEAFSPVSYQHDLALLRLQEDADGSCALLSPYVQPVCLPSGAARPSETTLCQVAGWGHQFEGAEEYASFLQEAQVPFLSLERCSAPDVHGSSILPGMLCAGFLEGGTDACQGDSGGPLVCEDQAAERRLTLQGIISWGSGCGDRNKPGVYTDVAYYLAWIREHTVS
Format: functional.

For test [1], the target named is T2, Tyrosine-protein phosphatase non-receptor type 22 (Homo sapiens, UniProt Q9Y2R2).
T2 sequence (Q9Y2R2 whole entry): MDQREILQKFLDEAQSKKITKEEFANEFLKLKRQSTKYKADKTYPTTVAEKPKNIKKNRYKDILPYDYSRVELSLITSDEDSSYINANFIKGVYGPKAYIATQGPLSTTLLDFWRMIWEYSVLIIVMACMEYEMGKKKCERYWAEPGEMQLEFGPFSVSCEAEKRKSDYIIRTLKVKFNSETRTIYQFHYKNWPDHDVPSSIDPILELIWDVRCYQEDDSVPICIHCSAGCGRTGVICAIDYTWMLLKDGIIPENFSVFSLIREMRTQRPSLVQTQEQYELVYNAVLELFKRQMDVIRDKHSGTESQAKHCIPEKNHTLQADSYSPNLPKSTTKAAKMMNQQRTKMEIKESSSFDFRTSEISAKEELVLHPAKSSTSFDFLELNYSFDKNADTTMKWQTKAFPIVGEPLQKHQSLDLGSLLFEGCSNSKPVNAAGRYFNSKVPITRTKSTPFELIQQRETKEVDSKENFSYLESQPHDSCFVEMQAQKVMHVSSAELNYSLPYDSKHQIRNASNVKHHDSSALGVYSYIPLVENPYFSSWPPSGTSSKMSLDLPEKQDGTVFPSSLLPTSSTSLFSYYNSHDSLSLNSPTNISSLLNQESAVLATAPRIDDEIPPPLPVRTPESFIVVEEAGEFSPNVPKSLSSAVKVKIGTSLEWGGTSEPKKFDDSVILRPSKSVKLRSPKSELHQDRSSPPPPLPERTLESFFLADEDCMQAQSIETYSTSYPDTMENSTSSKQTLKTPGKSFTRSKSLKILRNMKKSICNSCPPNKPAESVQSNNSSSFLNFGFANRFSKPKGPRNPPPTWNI
In kind it is functional.

The target of test [2] is T2, Tyrosine-protein phosphatase non-receptor type 22. Format: functional. The source holds these as a separate data set.
Test [3] deals with T3, Tyrosine-protein phosphatase non-receptor type 7 (Homo sapiens, UniProt P35236).
T3 sequence (P35236 whole entry): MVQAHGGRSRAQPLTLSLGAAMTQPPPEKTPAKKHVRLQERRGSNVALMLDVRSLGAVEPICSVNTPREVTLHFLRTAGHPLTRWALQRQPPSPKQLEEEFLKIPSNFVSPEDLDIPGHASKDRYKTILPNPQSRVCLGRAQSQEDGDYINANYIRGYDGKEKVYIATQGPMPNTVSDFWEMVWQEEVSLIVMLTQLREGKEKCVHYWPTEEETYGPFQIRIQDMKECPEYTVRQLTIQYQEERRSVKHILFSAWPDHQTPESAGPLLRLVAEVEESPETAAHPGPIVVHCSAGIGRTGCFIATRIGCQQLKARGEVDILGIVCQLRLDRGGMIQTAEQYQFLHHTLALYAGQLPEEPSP
In kind it is functional.

The next test concerns the target X-box-binding protein 1 (Homo sapiens, UniProt P17861). In kind it is functional, Cricetulus griseus.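 Also: confirmatory dose-response counter-screen serving a CHOP assay.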
Test [4] deals with Heat shock protein HSP 90-alpha (Homo sapiens, UniProt P07900). Format: functional, organism-based.
The target in test [5] is G-protein coupled receptor 55 (Homo sapiens, UniProt Q9Y2T6). Description: GPR55 antagonists blocking LPI-driven arrestin recruitment, primary screen, imaging, U2OS, beta-arrestin-GFP, LPI agonist (AID 2013).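 Also: antagonist potency measured as reduced agonist-driven arrestin aggregation.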 In kind it is functional.
Chain of G-protein coupled receptor 55 (Q9Y2T6 whole entry): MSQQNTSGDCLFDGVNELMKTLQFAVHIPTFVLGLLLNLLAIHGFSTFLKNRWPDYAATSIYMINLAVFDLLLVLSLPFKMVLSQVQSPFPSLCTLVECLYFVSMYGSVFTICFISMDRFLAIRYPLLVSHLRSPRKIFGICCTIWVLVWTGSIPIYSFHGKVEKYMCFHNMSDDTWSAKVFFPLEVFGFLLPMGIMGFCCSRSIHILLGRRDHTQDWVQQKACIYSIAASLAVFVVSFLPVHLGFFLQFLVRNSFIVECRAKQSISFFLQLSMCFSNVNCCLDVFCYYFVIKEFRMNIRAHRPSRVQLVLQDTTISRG
Test [6] is described as follows: inhibition of K1F phage lysis, E. coli UTI89, bacterial capsule biogenesis inhibitors, alamar blue (AID 488966). Format: functional. In general terms: The colour change of resazurin is a common sign of viable cells or microbes.
Test [7] addresses Induced myeloid leukemia cell differentiation protein Mcl-1 (Homo sapiens, UniProt Q07820). In kind it is functional.

Each structure is given as a SMILES string. Calls of active or inactive are those of the source.

Chain of Induced myeloid leukemia cell differentiation protein Mcl-1 (Q07820 whole entry): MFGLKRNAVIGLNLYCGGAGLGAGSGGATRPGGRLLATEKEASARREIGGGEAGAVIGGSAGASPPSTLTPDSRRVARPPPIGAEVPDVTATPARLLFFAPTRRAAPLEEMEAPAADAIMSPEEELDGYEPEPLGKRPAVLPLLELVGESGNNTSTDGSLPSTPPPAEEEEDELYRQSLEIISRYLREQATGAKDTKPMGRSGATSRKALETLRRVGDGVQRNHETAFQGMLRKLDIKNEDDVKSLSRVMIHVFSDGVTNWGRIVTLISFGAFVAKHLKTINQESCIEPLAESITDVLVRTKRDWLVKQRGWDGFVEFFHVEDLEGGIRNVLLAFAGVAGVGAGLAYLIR
Chain of X-box-binding protein 1 (P17861 whole entry): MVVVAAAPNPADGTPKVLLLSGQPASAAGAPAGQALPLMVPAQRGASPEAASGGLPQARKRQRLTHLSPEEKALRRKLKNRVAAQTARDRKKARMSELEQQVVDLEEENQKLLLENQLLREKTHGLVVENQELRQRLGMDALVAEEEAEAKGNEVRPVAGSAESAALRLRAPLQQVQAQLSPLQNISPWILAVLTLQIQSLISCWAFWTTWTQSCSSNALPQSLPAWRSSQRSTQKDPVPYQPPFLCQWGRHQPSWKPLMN

In general, IC50 refers to the concentration at which inhibition is half-maximal. For `CNC(=O)COC(=O)c1cc(-c2ccco2)nc2ccccc12`, the IC50 at Coagulation factor XII was > 50 µM (inactive).
On to `CCOC(=O)CNC(=O)Cn1cnc2c(nnn2-c2cccc(Cl)c2)c1=O`, for which, on Coagulation factor XII, the IC50 is > 50 µM (inactive).
Consider `COc1ccc2c(-c3ccccc3)cc(N3CCOCC3)nc2c1`, for which the IC50 in test [1], in test [2] and in [3] was > 79.4 µM (inactive) throughout.
As for `Cc1ccc(NC(=O)C(=O)NCC2OCCc3ccccc32)cc1` (stereo unspecified), the “Absolute IC50 (XBP1)” value on X-box-binding protein 1 came to 10 µM.
In general, AC50 refers to the concentration at which the activity in the assay is half-maximal. Turning to `CC(C)(C)C(=O)C(Cl)C(=O)Nc1ccccc1` (stereo unspecified), in [4], the AC50 is 1.05 µM (active). In addition, the IC50 in test [5] was 0.696 µM (active).
For the compound `Cc1ccc(C(=O)Oc2ccc(/C=C3\C(=N)N4N=C(N5CCOCC5)SC4=NC3=O)cc2)cc1`, in [6], the IC50 is > 75 µM (active).
As for `CCc1ccc2nc3sc(C(=O)Nc4nnc(CC)s4)c(N)c3cc2c1`, the IC50 is > 150 µM (active) in test [6] and 4.39 µM (not active) in test [7].
